Reference: ChEMBL document CHEMBL3580555, “Design, Synthesis, and Biological Evaluation of Novel Imidazo[1,2-a]pyridine Derivatives as Potent c-Met Inhibitors” (ACS Med Chem Lett, 2015)

How the values were obtained:
[1] = Antiproliferative activity against human EBC1 cells after 72 hrs; conditions: EBC-1, 72 h
[2] = Antiproliferative activity against human MKN45 cells after 72 hrs; format: functional, cell-based; conditions: MKN-45, 72 h
[3] = Antiproliferative activity against human SNU5 cells after 72 hrs; format: functional, cell-based; conditions: SNU-5, 72 h
BaF3 = assay: Antiproliferative activity against mouse BAF3/TPR-Met cells after 72 hrs; format: functional, cell-based; conditions: BaF3, 72 h
[4] = target: Hepatocyte growth factor receptor (Homo sapiens) (UniProt P08581); assay: Inhibition of C-Met (unknown origin) using polu (Glu,Tyr)4:1 substrate at 1 uM after 30 mins incubation by multi-well spectrophotometry
Hepatocyte growth factor receptor (Homo sapiens), sequence (P08581 whole entry): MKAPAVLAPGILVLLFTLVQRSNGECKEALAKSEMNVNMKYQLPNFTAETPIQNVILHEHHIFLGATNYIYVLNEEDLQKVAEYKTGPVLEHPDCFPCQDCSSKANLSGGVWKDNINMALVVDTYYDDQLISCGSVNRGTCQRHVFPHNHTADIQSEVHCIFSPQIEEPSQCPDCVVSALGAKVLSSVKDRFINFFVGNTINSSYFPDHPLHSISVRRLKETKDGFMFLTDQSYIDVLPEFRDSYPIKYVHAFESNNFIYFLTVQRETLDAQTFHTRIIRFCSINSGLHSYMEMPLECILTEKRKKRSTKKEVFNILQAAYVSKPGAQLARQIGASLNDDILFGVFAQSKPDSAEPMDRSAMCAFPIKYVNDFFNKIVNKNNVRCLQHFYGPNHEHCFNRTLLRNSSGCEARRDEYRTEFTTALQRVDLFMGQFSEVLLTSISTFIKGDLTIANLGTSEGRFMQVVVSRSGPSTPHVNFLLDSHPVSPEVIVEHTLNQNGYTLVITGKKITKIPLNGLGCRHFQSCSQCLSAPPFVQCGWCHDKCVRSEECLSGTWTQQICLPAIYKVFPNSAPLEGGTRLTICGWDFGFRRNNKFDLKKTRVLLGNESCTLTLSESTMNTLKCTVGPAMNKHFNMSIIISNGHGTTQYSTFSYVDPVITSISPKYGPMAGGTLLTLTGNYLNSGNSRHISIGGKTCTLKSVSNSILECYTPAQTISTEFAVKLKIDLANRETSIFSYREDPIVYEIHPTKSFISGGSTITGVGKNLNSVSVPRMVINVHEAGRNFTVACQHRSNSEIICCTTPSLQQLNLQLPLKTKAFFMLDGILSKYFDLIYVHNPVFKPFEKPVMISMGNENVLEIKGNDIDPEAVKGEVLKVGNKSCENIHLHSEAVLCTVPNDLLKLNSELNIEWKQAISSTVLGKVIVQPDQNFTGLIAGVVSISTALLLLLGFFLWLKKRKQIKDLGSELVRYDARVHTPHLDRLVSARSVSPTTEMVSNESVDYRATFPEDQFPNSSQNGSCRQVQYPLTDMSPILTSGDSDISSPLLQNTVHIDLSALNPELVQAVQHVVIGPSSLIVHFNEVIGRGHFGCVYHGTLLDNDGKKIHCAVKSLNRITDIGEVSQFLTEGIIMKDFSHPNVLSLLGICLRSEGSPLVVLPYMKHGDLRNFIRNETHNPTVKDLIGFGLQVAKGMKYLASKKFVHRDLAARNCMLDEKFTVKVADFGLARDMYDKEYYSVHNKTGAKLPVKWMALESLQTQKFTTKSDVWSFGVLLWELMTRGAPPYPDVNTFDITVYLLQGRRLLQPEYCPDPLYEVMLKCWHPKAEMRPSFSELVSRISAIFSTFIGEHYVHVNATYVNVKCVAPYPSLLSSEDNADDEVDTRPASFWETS

SMILES	IC50 [1]	other results
CCO/N=C(\C)c1cc(F)c2ncc(Cc3ccc4ncccc4c3)n2c1	1480 nM	–
CNC(=O)c1cc(-c2cc(F)c3ncc(Cc4ccc5ncccc5c4)n3c2)ccc1Cl	946 nM	–
CNC(=O)c1ccc(-c2cc(F)c3ncc(Cc4ccc5ncccc5c4)n3c2)cc1OC	59.6 nM	–
O=C(NC1CCOCC1)c1ccc(-c2cc(F)c3ncc(Cc4ccc5ncccc5c4)n3c2)cc1F	70.5 nM	–
N#Cc1ccc(-c2cc(F)c3ncc(Cc4ccc5ncccc5c4)n3c2)cc1F	145 nM	–
O=C(NCCCN1CCCC1)c1ccc(-c2cc(F)c3ncc(Cc4ccc5ncccc5c4)n3c2)cc1F	161 nM	–
Fc1cc(F)cc(-c2cc(F)c3ncc(Cc4ccc5ncccc5c4)n3c2)c1	790 nM	–
Cn1cc(-c2ccc3nnc(C(F)(F)c4ccc5ncccc5c4)n3n2)cn1 [JNJ-38877605]	9.5 nM	IC50 [2]: 10.9 nM; IC50 [3]: 15.8 nM; IC50 (BaF3): 17.6 nM
N#Cc1cccc(-c2cc(F)c3ncc(Cc4ccc5ncccc5c4)n3c2)c1	107 nM	–
OCCn1cc(-c2cc(F)c3ncc(Cc4ccc5ncccc5c4)n3c2)cn1	340 nM	–
Cn1cc(-c2cn3c(Cc4ccc5ncccc5c4)cnc3cc2Cl)cn1	–	inhibition [4]: 24.5%
Cn1cc(-c2cc(F)c3ncc(Cc4ccc5ncccc5c4)n3c2)cn1	270 nM	–
CN(C)CCNC(=O)c1ccc(-c2cc(F)c3ncc(Cc4ccc5ncccc5c4)n3c2)cc1F	49 nM	–
O=C(NCCN1CCOCC1)c1ccc(-c2cc(F)c3ncc(Cc4ccc5ncccc5c4)n3c2)cc1F	52 nM	–
Cn1cc(-c2cn3c(Cc4ccc5ncccc5c4)cnc3cc2C(F)(F)F)cn1	–	inhibition [4]: 5.9%
C[C@@H](Oc1cc(-c2cnn(C3CCNCC3)c2)cnc1N)c1c(Cl)ccc(F)c1Cl [CRIZOTINIB]	21.8 nM	IC50 [2]: 38.1 nM; IC50 [3]: 20.4 nM; IC50 (BaF3): 127 nM
O=C(c1ccc(-c2cc(F)c3ncc(Cc4ccc5ncccc5c4)n3c2)cc1F)N1CCC2(COC2)C1	406 nM	–
